Source: US12552783B2, “Modulators of proteolysis and associated methods of use” (Arvinas Operations, Inc., priority 2018, dated 2026)
Values belong to the compound of their own block, whether it stands above or below them.

Molecular target: KRas (Homo sapiens, UniProt P01116, G12C)
Assay: KRas degradation in NCI-H2030 cells by Western blot, normalized to GAPDH (data of Table 14)
Assay type: cell-based
Set-up: host or cells: NCI-H2030
Conditions: for Dmax: NCI-H2030
Outline: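 After overnight adherence and 24 h without FBS, compounds added at 0.3, 1 or 3 μM (0.1% DMSO) for 24 h (VHL-based) or 72 h (others). Western blot of RIPA lysates, KRas signal over GAPDH relative to DMSO; DC50 and DMax derived, or <25% scored visually.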

Percent Degradation at Indicated Concentration (μM) (H2030, 0.3 μM): C (Percent Degradation: C ≤ 35)
Percent Degradation at Indicated Concentration (μM) (H2030, 1 μM): C (Percent Degradation: C ≤ 35)
Percent Degradation at Indicated Concentration (μM) (H2030, 3 μM): C (Percent Degradation: C ≤ 35)
Dmax: ≤ 35%
SMILES: C=CC(=O)N1CCN(c2nc(NCCC(=O)N(C)CCOCCOCCOCCOCCNC(=O)c3ccc(NC(=O)[C@@H]4N[C@@H](CC(C)(C)C)[C@](C#N)(c5ccc(Cl)cc5F)[C@H]4c4cccc(Cl)c4F)c(OC)c3)nc3c(F)c(-c4cc(O)cc5ccccc45)c(Cl)cc23)CC1 [compound 304, (2R,3S,4R,5S)-N-(4-((18-((4-(4-acryloylpiperazin-1-yl)-6-chloro-8-fluoro-7-(3-hydroxynaphthalen-1-yl)quinazolin-2-yl)amino)-15-methyl-16-oxo-3,6,9,12-tetraoxa-15-azaoctadecyl)carbamoyl)-2-methoxyphenyl)-3-(3-chloro-2-fluorophenyl)-4-(4-chloro-2-fluorophenyl)-4-cyano-5-neopentylpyrrolidine-2-carboxamide]

Percent Degradation at Indicated Concentration (μM) (H2030 cells, 0.3 μM): C (Percent Degradation: C ≤ 35)
Percent Degradation at Indicated Concentration (μM) (H2030 cells, 1 μM): C (Percent Degradation: C ≤ 35)
Percent Degradation at Indicated Concentration (μM) (H2030 cells, 3 μM): C (Percent Degradation: C ≤ 35)
SMILES: C=CC(=O)N1CCN(c2nc(O[C@H](C)CN3CCC(OCCOCCOCC(=O)N[C@H](C(=O)N4C[C@H](O)C[C@H]4C(=O)N[C@@H](C)c4ccc(-c5scnc5C)cc4)C(C)(C)C)CC3)nc3c2CCN(c2cc(O)cc4ccccc24)C3)CC1 [compound 407, (2S,4R)-1-((S)-2-(2-(2-(2-((1-((R)-2-((4-(4-acryloylpiperazin-1-yl)-7-(3-hydroxynaphthalen-1-yl)-5,6,7,8-tetrahydropyrido[3,4-d]pyrimidin-2-yl)oxy)propyl)piperidin-4-yl)oxy)ethoxy)ethoxy)acetamido)-3,3-dimethylbutanoyl)-4-hydroxy-N-((S)-1-(4-(4-methylthiazol-5-yl)phenyl)ethyl)pyrrolidine-2-carboxamide]

Percent Degradation at Indicated Concentration (μM): 0.1 (H2030 cells, 0.1 μM): C (C ≤ 35)
Percent Degradation at Indicated Concentration (μM): 0.3 (H2030 cells, 0.3 μM): C (C ≤ 35)
Percent Degradation at Indicated Concentration (μM): 1 (H2030 cells, 1 μM): C (C ≤ 35)
Dmax (H2030 cells): ≤ 35%
SMILES: C=CC(=O)N1CCN(c2nc(NCCC(=O)N(C)CCOCCOCCOCCOCCNc3cccc4c3C(=O)N(C3CCC(=O)NC3=O)C4=O)nc3c(F)c(-c4cc(O)cc5ccccc45)c(Cl)cc23)CC1 (stereo not drawn) [compound 59, 3-((4-(4-acryloylpiperazin-1-yl)-6-chloro-8-fluoro-7-(3-hydroxynaphthalen-1-yl)quinazolin-2-yl)amino)-N-(14-((2-(2,6-dioxopiperidin-3-yl)-1,3-dioxoisoindolin-4-yl)amino)-3,6,9,12-tetraoxatetradecyl)-N-methylpropanamide]

Percent Degradation at Indicated Concentration (μM) (H2030, 3 μM): C (Percent Degradation: C ≤ 35)
SMILES: C=CC(=O)N1CCN(c2nc(NCCC(=O)N(C)CCOCCOCCOCCOCCOCC(=O)N[C@H](C(=O)N3C[C@H](O)C[C@H]3C(=O)N[C@@H](C)c3ccc(-c4scnc4C)cc3)C(C)(C)C)nc3c(F)c(-c4c(O)cccc4F)c(Cl)cc23)CC1 (atropisomer, axis not shown) [compound 213, (2S,4R)-1-((S)-24-(((S)-4-(4-acryloylpiperazin-1-yl)-6-chloro-8-fluoro-7-(2-fluoro-6-hydroxyphenyl)quinazolin-2-yl)amino)-2-(tert-butyl)-21-methyl-4,22-dioxo-6,9,12,15,18-pentaoxa-3,21-diazatetracosanoyl)-4-hydroxy-N-((S)-1-(4-(4-methylthiazol-5-yl)phenyl)ethyl)pyrrolidine-2-carboxamide]
